Experimental data: patent publication US20230286969A1, “AROMATIC SPIRO RING AMIDE DERIVATIVES FOR THE TREATMENT AND PROPHYLAXIS OF HEPATITIS B VIRUS INFECTION” (Hoffmann-La Roche Inc., priority 2020, published 2023)
Read-outs that look alike come from different tables or passages of the source.

Assays:
Type in all cases: cell-based
HBsAg = experiment: PHH HBV natural infection assay, HBsAg (alphalisa)
Description: (§1) Detailed procedures regarding primary human hepatocyte (PHH) HBV natural infection assay are described as below. One tube of frozen PHH (10 million cells) is thawed in 37° C. water bath and then transferred to 20 mL of PHH thawing medium (Sigma, InVitroGRO HT Medium, Cat. S03319) with gently mixing. The cells were then centrifuged at […] for 5 min, the supernatant was discarded and the tube was refilled with 25 mL of PHH plating medium (Sigma, InVitroGRO CP Medium, Cat. S03317). The tube was shaken very gently to re-suspend all cells, and then 50 μl of cells were transferred to each well 384-well collagen I coated plate with appropriate liquid handling equipment, e.g. Integra VIAFLO384 or Agilent Bravo. The cells were then cultured for 24 hours in a cell incubator. For HBV infection, after PHH attachment on the culture plate, the plating medium was removed and replenished with PHH culture medium containing HBV virus. The PHH culture medium was prepared with Dulbecco's Modified Eagle Medium (DMEM)/F12 (1:1 in volume ratio) containing 10% fetal bovine serum (Gibco, Cat. 10099141), 5 ng/mL human epidermal growth factor (Gibco, Cat.PHG0311L), 20 ng/mL dexamethasone (Sigma, Cat.D4902-100 mg), 250 ng/mL human recombinant insulin (Gibco, Cat.41400045) and 100 U/mL penicillin. HBV virus at 200 genome equivalent (GE) per cell with 4% PEG8000 (Sigma, Cat.P1458) containing culture medium were added to the PHH culture medium for infection. The cells were then cultured for 24 hours in cell incubator. Then the cell culture supernatant was removed. The HBV-infected PHH were cultured with sandwich culture method with PHH culture medium containing 1% DMSO and 0.25 mg/mL matrix gel for 72 hours. The supernatant was then refreshed with PHH culture medium containing different concentrations of testing compounds for two times with 72-hour interval. At the end of treatment, the supernatant was collected for viral markers measurements, including HBsAg, HBeAg, HBV DNA and cytotoxicity. HBsAg and HBeAg were detected using alphalisa method using their specific antibodies. For HBV DNA detection, HBV DNA Quantitative Fluorescence Diagnostic Kit (Sansure Biotech Inc.) was used following the manufacture's protocol. Cytotoxicity was determined using Cell Counting Kit-8 (CCK8, Dojindo Molecular Technologies, Inc.).
(§2) The compounds of the present invention were tested for their capacity to inhibit HBsAg and HBeAg as described herein.

HBeAg = experiment: PHH HBV natural infection assay, HBeAg (alphalisa)
Description: as §1, §2

[1] = PHH natural infection assay, cytotoxicity (Cell Counting Kit-8); conditions: human, HBV-infected primary human hepatocytes, CCK8, end of treatment
Description: as §1

[2] = Hepatitis B virus, Hepatocyte, 72 h, read-out: HBsAg IC50, HBV-infected primary human hepatocytes, supernatant, compound medium refreshed two times with 72-hour interval
[3] = Hepatitis B virus, Hepatocyte, 72 h, read-out: HbeAg IC50, HBV-infected primary human hepatocytes, supernatant, compound medium refreshed two times with 72-hour interval
[4] = read-out: HBsAg IC50, HBV-infected primary human hepatocytes, supernatant, compound medium refreshed two times with 72-hour interval
[5] = read-out: HbeAg IC50, HBV-infected primary human hepatocytes, supernatant, compound medium refreshed two times with 72-hour interval

With CS(=O)(=O)c1ccc(C(=O)NC2CC3(C2)CC(c2nc4cc(Cl)ccc4o2)C3)o1 (stereo not drawn) [Example 15, N-[6-(5-chloro-1,3-benzoxazol-2-yl)spiro[3.3]heptan-2-yl]-5-methylsulfonyl-furan-2-carboxamide] the IC50 (HBsAg; [2]) was 1.95 µM, the IC50 (HBeAg; [3]) was 1.17 µM and the CC50 at 144 h [1] was 79 µM.

With O=C(N[C@H]1CC2(C1)C[C@H](c1nc3cc(Cl)ccc3o1)C2)c1ccc(S(=O)(=O)NC(=O)C2CC2)o1 (single isomer, unassigned) [Example 71, (Sa)—N-[6-(5-chloro-1,3-benzoxazol-2-yl)spiro[3.3]heptan-2-yl]-5-(cyclopropanecarbonylsulfamoyl)furan-2-carboxamide, or (Ra)—N-[6-(5-chloro-1,3-benzoxazol-2-yl)spiro[3.3]heptan-2-yl]-5-(cyclopropanecarbonylsulfamoyl)furan-2-carboxamide] the IC50 (HBsAg; [2]) was 3.66 µM, the IC50 (HBeAg; [3]) was 3.28 µM and the CC50 at 144 h [1] was greater than 100 µM.

COCC(=O)NS(=O)(=O)c1ccc(C(=O)N[C@H]2CC3(C2)C[C@H](c2nc4cc(Cl)ccc4o2)C3)o1 (single isomer, unassigned) [Example 73, (Sa)—N-[6-(5-chloro-1,3-benzoxazol-2-yl)spiro[3.3]heptan-2-yl]-5-[(2-methoxyacetyl)sulfamoyl]furan-2-carboxamide, or (Ra)—N-[6-(5-chloro-1,3-benzoxazol-2-yl)spiro[3.3]heptan-2-yl]-5-[(2-methoxyacetyl)sulfamoyl]furan-2-carboxamide] showed an IC50 (HBsAg; [2]) of 0.416 µM, an IC50 (HBeAg; [3]) of 0.256 µM and a CC50 at 144 h [1] greater than 100 µM.

[H][C@]1(NC(=O)c2ccc(S(C)(=O)=O)o2)C[C@@]2(C1)C[C@]([H])(c1nc3cc(Cl)ccc3o1)C2 (single isomer, unassigned) [Example 15-a, (Sa)—N-[6-(5-chloro-1,3-benzoxazol-2-yl)spiro[3.3]heptan-2-yl]-5-methylsulfonyl-furan-2-carboxamide] showed an IC50 (HBsAg; [4]) of 5.19 µM, an IC50 (HBeAg; [5]) of 3.94 µM and a CC50 at 144 h [1] of 84 µM.

Compound CS(=N)(=O)c1ccc(C(=O)NC2CC3(C2)CC(c2nc4cc(Cl)ccc4o2)C3)o1 (single isomer, unassigned) [Example 52-a, N-[6-(5-chloro-1,3-benzoxazol-2-yl)spiro[3.3]heptan-2-yl]-5-(methylsulfonimidoyl)furan-2-carboxamide] has an IC50 (HBsAg; [4]) of 4.26 µM, an IC50 (HBeAg; [5]) of 1.77 µM and a CC50 at 144 h [1] greater than 100 µM.

Work on O=C(NC1CC2(C1)CC(c1nc3cc(Cl)ccc3o1)C2)c1ccc(C(=O)C2CC2)o1 (stereo not drawn) [Example 10, N-[6-(5-chloro-1,3-benzoxazol-2-yl)spiro[3.3]heptan-2-yl]-5-(cyclopropanecarbonyl)furan-2-carboxamide] yielded an IC50 (HBsAg; [2]) of 3.35 µM, an IC50 (HBeAg; [3]) of 2.94 µM and a CC50 at 144 h [1] of 96.1 µM.

CC(C)C(=O)NS(=O)(=O)c1ccc(C(=O)N[C@H]2CC3(C2)C[C@H](c2nc4cc(Cl)ccc4o2)C3)o1 (single isomer, unassigned) [Example 70, (Sa)—N-[6-(5-chloro-1,3-benzoxazol-2-yl)spiro[3.3]heptan-2-yl]-5-(2-methylpropanoylsulfamoyl)furan-2-carboxamide, or (Ra)—N-[6-(5-chloro-1,3-benzoxazol-2-yl)spiro[3.3]heptan-2-yl]-5-(2-methylpropanoylsulfamoyl)furan-2-carboxamide] showed an IC50 (HBsAg; [2]) of 0.361 µM, an IC50 (HBeAg; [3]) of 0.376 µM and a CC50 at 144 h [1] greater than 100 µM.

With CC(=O)NS(=O)(=O)c1ccc(C(=O)NC2CC3(C2)CC(c2nc4cc(Cl)ccc4o2)C3)o1 (stereo not drawn) [Example 80, 5-(acetylsulfamoyl)-N-[6-(5-chloro-1,3-benzoxazol-2-yl)spiro[3.3]heptan-2-yl]furan-2-carboxamide] the IC50 (HBsAg; [2]) was 2.77 µM, the IC50 (HBeAg; [3]) was 1.8 µM and the CC50 at 144 h [1] was greater than 100 µM.

Compound COCCOCCOCC(=O)NS(=O)(=O)c1ccc(C(=O)N[C@H]2CC3(C2)C[C@H](c2nc4cc(Cl)ccc4o2)C3)o1 (single isomer, unassigned) [Example 79, (Sa)—N-[6-(5-chloro-1,3-benzoxazol-2-yl)spiro[3.3]heptan-2-yl]-5-[[2-[2-(2-methoxyethoxy)ethoxy]acetyl]sulfamoyl]furan-2-carboxamide, or (Ra)—N-[6-(5-chloro-1,3-benzoxazol-2-yl)spiro[3.3]heptan-2-yl]-5-[[2-[2-(2-methoxyethoxy)ethoxy]acetyl]sulfamoyl]furan-2-carboxamide] has an IC50 (HBsAg; [2]) of 6.13 µM, an IC50 (HBeAg; [3]) of 4.65 µM and a CC50 at 144 h [1] greater than 10 µM.

For O=C(NC1CC2(C1)CC(c1nc3cc(Cl)ccc3o1)C2)c1ccc(SC(F)(F)F)o1 (stereo not drawn) [Example 41, N-[6-(5-chloro-1,3-benzoxazol-2-yl)spiro[3.3]heptan-2-yl]-5-(trifluoromethylsulfanyl)furan-2-carboxamide], the IC50 (HBsAg; [2]) was 8.47 µM, the IC50 (HBeAg; [3]) was 6.62 µM and the CC50 at 144 h [1] was greater than 100 µM.

O=C(NC1CC2(C1)CC(c1nc3cc(Cl)cnc3o1)C2)c1ccc(S(=O)(=O)C2CC2)o1 (single isomer, unassigned) [Example 49-a, N-[6-(6-chlorooxazolo[5,4-b]pyridin-2-yl)spiro[3.3]heptan-2-yl]-5-cyclopropylsulfonyl-furan-2-carboxamide] gave an IC50 (HBsAg; [4]) of 4.17 µM, an IC50 (HBeAg; [5]) of 4.25 µM and a CC50 at 144 h [1] of 81.1 µM.

For CS(=O)(=O)c1ccc(C(=O)NC2CC3(C2)CC(c2nc4cc(Cl)ccc4o2)C3)s1 (stereo not drawn) [Example 45, N-[6-(5-chloro-1,3-benzoxazol-2-yl)spiro[3.3]heptan-2-yl]-5-methylsulfonyl-thiophene-2-carboxamide], the IC50 (HBsAg; [2]) was 2.21 µM, the IC50 (HBeAg; [3]) was 1.9 µM and the CC50 at 144 h [1] was greater than 100 µM.

O=C(NC1CC2(C1)CC(c1nc3cnc(Cl)cc3o1)C2)c1ccc(S(=O)(=O)C2CC2)o1 (stereo not drawn) [Example 51, N-[6-(6-chlorooxazolo[4,5-c]pyridin-2-yl)spiro[3.3]heptan-2-yl]-5-cyclopropylsulfonyl-furan-2-carboxamide] gave an IC50 (HBsAg; [2]) of 1.8 µM, an IC50 (HBeAg; [3]) of 1.15 µM and a CC50 at 144 h [1] greater than 100 µM.

In the case of CC(C)(C)S(=O)(=O)c1ccc(C(=O)NC2CC3(C2)CC(c2nc4cc(Cl)ccc4o2)C3)o1 (stereo not drawn) [Example 39, 5-tert-butylsulfonyl-N-[6-(5-chloro-1,3-benzoxazol-2-yl)spiro[3.3]heptan-2-yl]furan-2-carboxamide], the IC50 (HBsAg; [2]) is reported as 0.96 µM, the IC50 (HBeAg; [3]) is reported as 0.603 µM and the CC50 at 144 h [1] is reported as greater than 10 µM.

With NS(=O)(=O)CCc1ccc(C(=O)NC2CC3(C2)CC(c2nc4cc(Cl)ccc4o2)C3)o1 (stereo not drawn) [Example 34, N-[6-(5-chloro-1,3-benzoxazol-2-yl)spiro[3.3]heptan-2-yl]-5-(2-sulfamoylethyl)furan-2-carboxamide] the IC50 (HBsAg; [2]) was 8.78 µM, the IC50 (HBeAg; [3]) was 5.84 µM and the CC50 at 144 h [1] was greater than 100 µM.

Compound N=S(=O)(CC1CC1)c1ccc(C(=O)NC2CC3(C2)CC(c2nc4cc(Cl)ccc4o2)C3)o1 (stereo not drawn) [Example 54, N-[6-(5-chloro-1,3-benzoxazol-2-yl)spiro[3.3]heptan-2-yl]-5-(cyclopropylmethylsulfonimidoyl)furan-2-carboxamide] has an IC50 (HBsAg; [2]) of 0.47 µM, an IC50 (HBeAg; [3]) of 0.542 µM and a CC50 at 144 h [1] of 88.8 µM.

In the case of CCS(=O)(=O)c1cc(C)c(C(=O)NC2CC3(C2)CC(c2nc4cc(Cl)ccc4o2)C3)o1 (stereo not drawn) [Example 37, N-[6-(5-chloro-1,3-benzoxazol-2-yl)spiro[3.3]heptan-2-yl]-5-ethylsulfonyl-3-methyl-furan-2-carboxamide], the IC50 (HBsAg; [2]) is reported as 9.38 µM, the IC50 (HBeAg; [3]) is reported as 5.72 µM and the CC50 at 144 h [1] is reported as greater than 100 µM.

In the case of CCS(=O)(=O)c1ccc(C(=O)NC2CC3(C2)CC(c2nc4cc(Cl)ccc4o2)C3)o1 (stereo not drawn) [Example 16, N-[6-(5-chloro-1,3-benzoxazol-2-yl)spiro[3.3]heptan-2-yl]-5-ethylsulfonyl-furan-2-carboxamide], the IC50 (HBsAg; [2]) is reported as 1.53 µM, the IC50 (HBeAg; [3]) is reported as 1.03 µM and the CC50 at 144 h [1] is reported as 74 µM.
